Experimental data from patent US7732412B2, “Methods of treatment using novel LHRH antagonists having improved solubility properties” (Zentaris GmbH, priority 1999, dated 2010).
Numbered stars: 1 amine (or outer) side, 2 acyl side, 3 side chain; on linkers, the order of the positions; unused ones are H or OH. Square brackets hold non-standard residues; d marks the D form. Side chains are listed from the residue outwards. Peptide text beside a SMILES is read from it. * marks the point of attachment. Triazole(1,2,4-3-CO,5-NH) = O=C(c1n[nH]c(N[*:1])n1)[*:2]; Propanoyl(3-(4-F-phenyl)) = O=C(CCc1ccc(F)cc1)*; NH(4-amidinophenyl) = N=C(N)c1ccc(N*)cc1; dPhe(4-Cl) = N[C@H](Cc1ccc(Cl)cc1)C(=O)O; d1Nal = N[C@H](Cc1cccc2ccccc12)C(=O)O; d2Nal = N[C@H](Cc1ccc2ccccc2c1)C(=O)O; Lys(iPr) = CC(C)NCCCC[C@H](N)C(=O)O; NMeY = CN[C@@H](Cc1ccc(O)cc1)C(=O)O; d3Pal = N[C@H](Cc1cccnc1)C(=O)O; Suc = O=C(CCC(=O)[*:2])[*:1]; Nle = CCCC[C@H](N)C(=O)O; Sar = CNCC(=O)O

Target: T1, human LHRH receptor (Homo sapiens, UniProt P30968)
T1 sequence (P30968 1-328): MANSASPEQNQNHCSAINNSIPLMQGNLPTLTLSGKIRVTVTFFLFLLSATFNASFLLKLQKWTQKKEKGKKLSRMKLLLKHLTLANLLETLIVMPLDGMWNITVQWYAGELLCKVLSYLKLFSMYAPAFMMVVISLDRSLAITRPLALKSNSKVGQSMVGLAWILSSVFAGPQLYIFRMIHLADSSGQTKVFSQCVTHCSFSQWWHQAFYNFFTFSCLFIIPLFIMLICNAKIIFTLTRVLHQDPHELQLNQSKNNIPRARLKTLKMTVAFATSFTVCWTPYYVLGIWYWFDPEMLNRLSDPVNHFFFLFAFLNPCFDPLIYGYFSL
Assay: functional assay for antagonistic activity, fos-Luc luciferase reporter gene, stimulation with 1 nM [D-Trp6] LHRH
Type: cell-based
Design: expressed in transfected cells
Conditions: cells stimulated with 1 nM [D-Trp6] LHRH for 6 h; bracket = number of independent experiments
Method: The assay for the functional characterization of antagonistic analogs of LH-RH was carried out, with some modifications, as described in Beckers et al., “Characterization of gonadotropin-releasing hormone analogs based on a sensitive cellular luciferase reporter gene assay” (1997) Analyt. Biochem. 251, 17-23. The assay uses a reporter gene made by fusing the c-fos immediate-early gene promoter to a DNA sequence encoding luciferase (Luc). A recombinant cell line that expresses the human LH-RH. receptor is stably transfected with the fos-Luc reporter gene. Transcription of the fos-Luc fusion gene and synthesis of the Luc protein is induced in the cells in a dose-dependent manner by LH-RH and other LH-RH agonists that bind and signal through the human LH-RH receptor. Peptide LH-RH antagonists such as the compounds of the invention bind to cellular LH-RH receptors and inhibit this stimulation. The antagonistic potency (IC50) of peptide LH-RH antagonists as determined by the assay generally correlates well with the binding affinity (KD) of the LH-RH antagonists for LH-RH receptor as determined from ligand binding experiments.
Cells containing the fos-Luc reporter gene that express the human LH-RH receptor were cultured for 24 h in microtitre plates using DMEM with additives and 1% (v:v) FCS (10,000 cells per well). The cells were then stimulated with 1 nM [D-Trp^6] LHRH for 6 h. Peptide LH-RH antagonist compounds according to the invention were added before the stimulation, and the cells were lysed at the end for quantification of the cellular Luc activity. The calculation of the IC50 values from dose-effect curves was carried out by non-linear regression analysis using the Hill model (Programme EDX 2.0 from C. Grunwald, Arzneimittelwerk Dresden).
The quantification of the Luc activity was carried out in duplicate essentially as described (Promega Technical Bulletins #101/161) using the respective luciferase assay system (Promega E4030). Owing to addition of coenzyme A (CoA), an oxidation of luciferyl-CoA takes place with advantageous kinetics. After the removal of the culture medium from the microtitre plate, the cells were lysed by addition of 100 μl of lysis buffer (25 mM tris-phosphate pH 7.8, 2 mM dithiothreitol, 2 mM 1,2-diaminocyclohexane-N,N,N′,N′-tetraacetic acid (CDTA), 10% (v:v) glycerol, 1% (v:v) Triton X-100). After incubation at room temperature for 15 min, 10 μl of cell lysate were transferred into a white microtitre plate suitable for luminometric detection (Dynatech). The enzymatic reaction was initiated by addition of 50 μl of assay buffer (20 mM tricine pH 7.8, 1.07 mM (MgCO3)4Mg(OH)2, 2.67 mM MgSO4, 0.1 mM ethylene-diaminetetraacetic acid (EDTA), 33.3 mM dithiothreitol, 270 μM coenzyme A, 470 μM glow-worm (Photinus pyralis) luciferin, 530 μM rATPNa2). After one minute, the luminescence was determined for a total time of one second with a signal half-life of five minutes using the EG&G Berthold MicroLumat LB 96 P.

Point of comparison: `CCCC[C@H](NC(=O)[C@@H](CCCCNC(=O)CCC(=O)Nc1ccc(C(=N)N)cc1)NC(=O)[C@H](Cc1ccc(O)cc1)N(C)C(=O)[C@H](CO)NC(=O)[C@@H](Cc1cccnc1)NC(=O)[C@@H](Cc1ccc(Cl)cc1)NC(=O)[C@@H](Cc1ccc2ccccc2c1)NC(C)=O)C(=O)N[C@@H](CCCCNC(C)C)C(=O)N1CCC[C@H]1C(=O)N(C)CC(N)=O` [Example 9, Ac-D-Nal(2)^1-D-Cpa^2-D-Pal(3)^3-Ser^4-N-Me-Tyr^5-D-Lys(B)^6-Nle^7-Lys(iPr)^8-Pro^9-Sar^10-NH2] (Ac-[d2Nal][dPhe(4-Cl)][d3Pal]S[NMeY][dK]([Suc-NH(4-amidinophenyl)])[Nle][Lys(iPr)]P[Sar]-NH2), IC50 4.7 nM. Against it:
- CCCC[C@H](NC(=O)[C@@H](CCCCNC(=O)CCC(=O)Nc1ccc(C(=N)N)cc1)NC(=O)[C@H](Cc1ccc(O)cc1)N(C)C(=O)[C@H](CO)NC(=O)[C@@H](Cc1cccnc1)NC(=O)[C@@H](Cc1ccc(Cl)cc1)NC(=O)[C@@H](Cc1ccc2ccccc2c1)NC(C)=O)C(=O)N[C@@H](CCCNC(=N)N)C(=O)N1CCC[C@H]1C(=O)N[C@H](C)C(N)=O [Example 8, Ac-D-Nal(2)^1-D-Cpa^2-D-Pal(3)^3-Ser^4-N-Me-Tyr^5-D-Lys(B)^6-Nle^7-Arg^8-Pro^9-D-Ala^10-NH2] (Ac-[d2Nal][dPhe(4-Cl)][d3Pal]S[NMeY][dK]([Suc-NH(4-amidinophenyl)])[Nle]RP[dA]-NH2) — 3.4-fold lower, 1.4 nM
- CC(C)C[C@H](NC(=O)[C@@H](CCCCNC(=O)c1nc(N)n[nH]1)NC(=O)[C@H](Cc1ccc(O)cc1)N(C)C(=O)[C@H](CO)NC(=O)[C@@H](Cc1cccc2ccccc12)NC(=O)CCc1ccc(F)cc1)C(=O)N[C@@H](CCCNC(=N)N)C(=O)N1CCC[C@H]1C(=O)N[C@H](C)C(N)=O [Example 6, 3-(4-Fluorophenyl)propionyl-D-Nal(1)^1-Ser^4-N-Me-Tyr^5-D-Lys (Atz)^6-Leu^7-Arg^8-Pro^9-D-Ala^10-NH2] ({Propanoyl(3-(4-F-phenyl))}-[d1Nal]S[NMeY][dK](Triazole(1,2,4-3-CO,5-NH))LRP[dA]-NH2) — 21-fold lower, 0.221 nM
- CCCC[C@H](NC(=O)[C@@H](CCCCNC(=O)CCC(=O)Nc1ccc(C(=N)N)cc1)NC(=O)[C@H](Cc1ccc(O)cc1)N(C)C(=O)[C@H](CO)NC(=O)[C@@H](Cc1cccnc1)NC(=O)[C@@H](Cc1ccc(Cl)cc1)NC(=O)[C@@H](Cc1ccc2ccccc2c1)NC(C)=O)C(=O)N[C@@H](CCCNC(=N)N)C(=O)N1CCC[C@H]1C(=O)N(C)CC(N)=O [Example 7, Ac-D-Nal(2)^1-D-Cpa^2-D-Pal(3)^3-Ser^4-N-Me-Tyr^5-D-Lys(B)^6-Nle^7-Arg^8-Pro^9-Sar^10-NH2] (Ac-[d2Nal][dPhe(4-Cl)][d3Pal]S[NMeY][dK]([Suc-NH(4-amidinophenyl)])[Nle]RP[Sar]-NH2) — 3.6-fold lower, 1.3 nM
